Data published in patent publication US20220152031A1, “PYRIDAZINONES AND METHODS OF USE THEREOF” (Goldfinch Bio, Inc., priority 2019, published 2022).
Like-named read-outs stand apart in the source and are kept apart here.

Tests used:
TRPC4 = molecular target: T1, TRPC4 (Homo sapiens, UniProt Q9UBN4); assay: TRPC4 activity assay (FLIPR calcium fluorescence, HEK-TREx hTRPC4 cells); format: cell-based; details: Table 5, HEK-TREx hTRPC4; read-out: TRPC4 FLIPR IC50
T1 construct: expressed in transfected cells
T1 sequence (Q9UBN4 1-982 isoform Q9UBN4-5): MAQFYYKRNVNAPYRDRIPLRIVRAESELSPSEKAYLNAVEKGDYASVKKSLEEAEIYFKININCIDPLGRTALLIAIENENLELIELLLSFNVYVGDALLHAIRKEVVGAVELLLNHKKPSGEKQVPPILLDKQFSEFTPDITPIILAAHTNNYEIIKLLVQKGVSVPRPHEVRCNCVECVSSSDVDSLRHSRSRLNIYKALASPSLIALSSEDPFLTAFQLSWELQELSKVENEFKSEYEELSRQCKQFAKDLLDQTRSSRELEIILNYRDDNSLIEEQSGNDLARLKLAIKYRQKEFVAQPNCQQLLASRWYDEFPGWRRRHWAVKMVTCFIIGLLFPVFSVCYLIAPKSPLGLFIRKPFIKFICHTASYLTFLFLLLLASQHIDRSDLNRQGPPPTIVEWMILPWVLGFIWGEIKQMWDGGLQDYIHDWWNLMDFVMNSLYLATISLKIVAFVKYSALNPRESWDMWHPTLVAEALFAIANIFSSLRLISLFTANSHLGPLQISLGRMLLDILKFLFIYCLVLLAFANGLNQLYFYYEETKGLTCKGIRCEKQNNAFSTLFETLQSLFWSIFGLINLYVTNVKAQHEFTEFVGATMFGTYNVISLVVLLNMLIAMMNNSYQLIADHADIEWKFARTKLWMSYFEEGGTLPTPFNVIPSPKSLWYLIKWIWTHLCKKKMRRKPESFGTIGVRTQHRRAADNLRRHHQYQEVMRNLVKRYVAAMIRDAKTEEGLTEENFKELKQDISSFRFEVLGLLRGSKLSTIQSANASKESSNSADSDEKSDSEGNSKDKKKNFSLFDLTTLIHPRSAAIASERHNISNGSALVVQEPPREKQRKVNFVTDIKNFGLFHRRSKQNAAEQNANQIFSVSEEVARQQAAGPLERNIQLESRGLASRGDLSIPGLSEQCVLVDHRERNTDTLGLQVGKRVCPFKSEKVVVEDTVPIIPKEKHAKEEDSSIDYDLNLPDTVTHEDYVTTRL
Protocol: (§1) ICLN-1694 cells (HEK-TREx hTRPC4) expressing TRPC4 were generated as follows. Commercially available HekTrex-293 cells were seeded at 0.7×10^6 cells/well in a 1×6-well plate 24 hrs prior to transfection using 2 mL cell growth media containing no antibiotics (lx DMEM/high glucose (Hyclone #SH30022.02); 10% fetal bovine serum (Sigma) 2 mM sodium pyruvate, 10 mM HEPES). […] On day 2, 2 μg of plasmid DNA plus 6 μl of Xtreme-GENE HP reagent in Optimem (200 μl total volume) was prepared and incubated for 15 min at room temperature. This plasmid solution was then gently overlayed dropwise onto each well and the plate was gently swirled to mix complex with the media for approximately 30 seconds. Transfected cells were incubated at 37° C. in a 10% CO2 incubator for 24 hrs. The transfected cells were harvested and transferred into 2×150 mm dishes containing cell growth media with no antibiotics at 37° C.
(§2) The next day selection was initiated to generate a stable pool by adding cell growth media containing 150 μg/mL Hygromycin and 5 μg/mL Blasticidin and cells were allowed to grow. Media with the selection agent was changed every 1-2 days as needed to remove dead cells. After 7 days, the hygromycin concentration was reduced to 75 μg/mL and cells growth was allowed to continue.
(§3) Single clones were selected as follows. The stable pool was diluted to 10 cells/mL and seeded (100 μl/well) into 24×96 well plates (˜1 cell/well) and allowed to grow for 7 days in cell growth media. Fresh media (100 μl) was added and the cells allowed to grow for another 1-2 weeks and then stored frozen or used immediately.
(§4) 10-point dose response curves were generated using the Echo-550 acoustic dispenser. Compound source plates were made by serially diluting compound stocks to create 10 mM, 1 mM, and 0.1 mM solutions in DMSO into Echo-certified LDV plates. The Echo then serially spotted 100% DMSO stock solutions into source dose response plates to generate a 4-fold dilution scheme. 100% DMSO was added to the spotted dose response plates to bring the final volume to 5 μl. 300 nl of the dose response stock plate was then spotted into pre-incubation and stimulation assay plates. 50 μl of pre-incubation buffer and 100 μl of stimulation buffer was then added to the plates resulting in a final assay test concentration range of 30 μM to 0.0001 μM with a final DMSO concentration of 0.3%.
ICLN-1694 cells (HEK-TREx hTRPC4) were plated onto 384 well, black pdl-coated microplates and maintained in cell growth media supplemented with 1 μg/mL tetracycline the day prior to use for experiments. TRPC4 expression was induced by the application of 1 μg/mL tetracycline at the time of plating. […] Cells were incubated at room temperature, protected from light, for 60-90 minutes. After the incubation period, the dye was removed and replaced with 10 μl of EBSS. Cell, pre-incubation and stimulation plates were loaded onto the FLIPR-II and the assay was initiated. The FLIPR measured a 10 second baseline and then added 10 μl of 2× compounds (or controls). Changes in fluorescence were monitored for an additional 5 minutes. After a 5 minute pre-incubation, 20 μl of 2× Englerin A (with 1× compound or controls) was added to the cell plate. The final Engerlin A stimulation concentration in the assay was 100 nM. After the Englerin A addition, changes in fluorescence were monitored for an additional 5 minutes.
Compound modulation of TRPC4 calcium response was determined as follows. After the Englerin A, fluorescence was monitored for a 5-minute period. The maximum relative fluorescence response (minus the control response of 1 μM of an internal control compound known to maximally block TRPC4 calcium response, the “REF INHIB” in the formula below) was captured and exported from the FLIPR.
(§5) Compound effect is calculated as % inhibition using the following formula: […]
(§6) wherein “RFU” is the relative fluorescent units.

TRPC5 = molecular target: T2, TRPC5 (Homo sapiens, UniProt Q9UL62); assay: TRPC5 activity assay (FLIPR calcium fluorescence, HEK-TREx hTRPC5 cells); format: cell-based
T2 construct: expressed in transfected cells
T2 sequence (Q9UL62 1-973): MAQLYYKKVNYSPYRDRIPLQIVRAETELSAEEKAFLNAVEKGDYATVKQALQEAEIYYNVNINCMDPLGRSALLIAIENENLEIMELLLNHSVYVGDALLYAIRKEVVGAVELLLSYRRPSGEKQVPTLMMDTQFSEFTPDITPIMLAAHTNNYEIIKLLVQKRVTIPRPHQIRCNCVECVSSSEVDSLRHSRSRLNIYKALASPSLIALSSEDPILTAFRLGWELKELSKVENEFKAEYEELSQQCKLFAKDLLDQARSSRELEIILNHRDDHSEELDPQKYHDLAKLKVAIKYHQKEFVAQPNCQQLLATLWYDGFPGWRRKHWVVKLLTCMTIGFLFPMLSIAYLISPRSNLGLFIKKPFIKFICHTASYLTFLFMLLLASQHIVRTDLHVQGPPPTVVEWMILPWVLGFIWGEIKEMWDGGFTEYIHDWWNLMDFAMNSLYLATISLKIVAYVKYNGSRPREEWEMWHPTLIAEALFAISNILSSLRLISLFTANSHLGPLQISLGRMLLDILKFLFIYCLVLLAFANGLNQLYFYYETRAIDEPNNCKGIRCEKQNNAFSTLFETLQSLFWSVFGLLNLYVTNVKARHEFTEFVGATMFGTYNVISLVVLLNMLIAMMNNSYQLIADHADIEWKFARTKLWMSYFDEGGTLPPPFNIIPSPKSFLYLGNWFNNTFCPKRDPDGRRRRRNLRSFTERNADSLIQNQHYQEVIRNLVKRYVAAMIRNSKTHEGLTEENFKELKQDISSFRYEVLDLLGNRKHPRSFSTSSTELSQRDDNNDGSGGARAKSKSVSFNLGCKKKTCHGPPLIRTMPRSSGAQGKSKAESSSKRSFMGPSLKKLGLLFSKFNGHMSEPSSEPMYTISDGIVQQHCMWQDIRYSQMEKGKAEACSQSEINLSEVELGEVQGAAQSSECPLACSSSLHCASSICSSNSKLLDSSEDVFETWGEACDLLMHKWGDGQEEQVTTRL
Protocol: as §1, with “ICLN-1633” for “ICLN-1694”, “hTRPC5)” for “hTRPC4)”, “TRPC5” for “TRPC4”
as §2, §3
as §4, with “Echo certified” for “Echo-certified”
Human ICLN-1633 cells expressing were plated onto 384 well, black PDL-coated microplates and maintained in TRPC5 growth media the day prior to use for experiments. TRPC5 expression was induced by the application of 1 μg/mL tetracycline at the time of plating. […] Cells are incubated at room temperature, protected from light, for 60-90 minutes. After the incubation period, the dye is removed and replaced with 10 μl of EBSS. Cell, pre-incubation and stimulation plates are loaded onto the FLIPR-II and the assay is initiated. The FLIPR measures a 10 second baseline and then adds 10 μl of 2× compounds (or controls). Changes in fluorescence are monitored for an additional 5 minutes. After the 5 minute pre-incubation, 20 μl of 2× Riluzole (with 1× compound or controls) is added to the cell plate. The final Riluzole stimulation concentration in the assay is 30 μM. After the Riluzole addition, changes in fluorescence are monitored for an additional 5 minutes.
Compound modulation of TRPC5 calcium response was determined as follows. After the Englerin A, fluorescence was monitored for a 5-minute period. The maximum relative fluorescence response (minus the control response of 1 μM of an internal control compound known to maximally block TRPC5 calcium response, the “REF INHIB” in the formula below) was captured and exported from the FLIPR.
as §5, §6

[1] = HEK-TREx hTRPC5 cells, FLIPR, 30 μM Riluzole stimulation, read-out: TRPC5

Q: How did the IC50 (TRPC4) turn out when `CC(c1ccc(F)cc1C(F)(F)F)N1C[C@@H](C)N(c2cn[nH]c(=O)c2Cl)CC1=O` (single isomer, unassigned) [MD] was run?
A: The IC50 was 0.01 to 1000 nM.

Q: For `O=c1[nH]ncc(N2CCc3c(nc(CO)nc3Oc3ccc(F)cc3C(F)F)C2)c1Cl` [Compound 134, 4-chloro-5-[4-[2-(difluoromethyl)-4-fluorophenoxy]-2-(hydroxymethyl)-5H,6H,7H,8H-pyrido[3,4-d]pyrimidin-7-yl]-2,3-dihydropyridazin-3-one], which IC50 (TRPC5; [1]) is on record?
A: The IC50 was < 50 nM.

Q: How did the IC50 (TRPC5; [1]) turn out when `O=c1[nH]ncc(N2CCc3c(ncnc3N(CCO)c3ccc(F)cc3C(F)(F)F)C2)c1Cl` [Compound 136, 4-Chloro-5-(4-[[4-fluoro-2-(trifluoromethyl)phenyl](2-hydroxyethyl)amino]-5H,6H,7H,8H-pyrido[3,4-d]pyrimidin-7-yl)-2,3-dihydropyridazin-3-one] was run?
A: Its IC50 is < 50 nM.

Q: `Cn1c2c(c(Oc3ccc(F)cc3C(F)(F)F)nc1=O)CCN(c1cn[nH]c(=O)c1Cl)C2` [Compound 138, 4-Chloro-5-[4-[4-fluoro-2-(trifluoromethyl)phenoxy]-1-methyl-2-oxo-1H,2H,5H,6H,7H,8H-pyrido[3,4-d]pyrimidin-7-yl]-2,3-dihydropyridazin-3-one] was tested. Which IC50 (TRPC5; [1]) did it give?
A: The IC50 was 50 to 500 nM.

Q: How did the IC50 (TRPC5; [1]) turn out when `COc1nc2c(c(Oc3ccc(F)cc3C(F)(F)F)n1)CCN(c1cn[nH]c(=O)c1Cl)C2` [Compound 139, 4-Chloro-5-[4-[4-fluoro-2-(trifluoromethyl)phenoxy]-2-methoxy-5H,6H,7H,8H-pyrido[3,4-d]pyrimidin-7-yl]-2,3-dihydropyridazin-3-one] was run?
A: Its IC50 is 50 to 500 nM.

Q: `O=c1[nH]ncc(N2CCc3c(Oc4ccc(F)cc4C(F)(F)F)ccnc3C2)c1Cl` [Compound 140, 4-chloro-5-[4-[4-fluoro-2-(trifluoromethyl)phenoxy]-5,6,7,8-tetrahydro-1,7-naphthyridin-7-yl]-2,3-dihydropyridazin-3-one] was tested. Which IC50 (TRPC5; [1]) did it give?
A: The IC50 was 50 to 500 nM.

Q: `CCc1ncccc1[C@@H](C)n1nnc2c1CCN(c1cn[nH]c(=O)c1Cl)C2` [MS, 4-chloro-5-[1-[(1R)-1-(2-ethylpyridin-3-yl)ethyl]-1H,4H,5H,6H,7H-[1,2,3]triazolo[4,5-c]pyridin-5-yl]-2,3-dihydropyridazin-3-one] was tested. Which IC50 (TRPC5; Table 4, HEK-TREx hTRPC5, read-out: TRPC5-FLIPR IC50) did it give?
A: The IC50 was 0.01 to 1000 nM.

Q: And the IC50 (TRPC5; Table 7, HEK-TREx hTRPC5, read-out: TRPC5-FLIPR IC50)?
A: Its IC50 is 0.01 to 1000 nM.
